Source: ChEMBL document CHEMBL1201862, “PubChem BioAssay data set” (2004)
The source made the active and inactive calls. Rule as the data show it, for most assays here: actives have a measured EC50 and inactives only a lower limit.

Experiments:
[1] = M. tuberculosis H37Rv growth inhibitors, H37Rv strain (AID 1626); format: functional
[2] = inhibitors of intracellular T. cruzi replication, confirmation, NIH3T3 host cells, beta-gal luminescence (AID 2044); format: functional, cell-based;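 also: intracellular parasites grown in NIH/3T3 mouse fibroblasts as host cells; luminescent beta-galactosidase reporter signal from transgenic T. cruzi replicating inside host cells; inhibitors lower the luminescence signal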
[3] = cytotoxicity toward NIH3T3 fibroblasts, dose response, counter-screen, cell-based, ATP luminescence, mouse fibroblasts (AID 2010); format: functional;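 also: cells exposed to compound for about 90 hours before reading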
[4] = molecular target: T1, DNA repair protein RAD52 homolog (Homo sapiens, UniProt P43351); format: functional, biochemical
T1 sequence (P43351 whole entry): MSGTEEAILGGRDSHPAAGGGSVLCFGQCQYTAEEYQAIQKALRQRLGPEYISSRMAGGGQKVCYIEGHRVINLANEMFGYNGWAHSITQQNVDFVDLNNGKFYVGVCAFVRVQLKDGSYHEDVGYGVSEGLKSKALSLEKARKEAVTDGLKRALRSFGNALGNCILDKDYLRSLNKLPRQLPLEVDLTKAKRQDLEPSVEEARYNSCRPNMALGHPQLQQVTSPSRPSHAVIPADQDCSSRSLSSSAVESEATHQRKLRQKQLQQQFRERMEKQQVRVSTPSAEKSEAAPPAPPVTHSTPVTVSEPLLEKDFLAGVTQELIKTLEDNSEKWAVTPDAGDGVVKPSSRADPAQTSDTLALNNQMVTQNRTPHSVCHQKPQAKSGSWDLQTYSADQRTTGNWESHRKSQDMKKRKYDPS

[5] = cells
[6] = molecular target: T2, Tyrosine-protein phosphatase non-receptor type 7 (Homo sapiens, UniProt P35236); assay: inhibitors of human HePTP phosphatase, […], biochemical, absorbance, leukemia target (AID 521); format: functional
T2 sequence (P35236 whole entry): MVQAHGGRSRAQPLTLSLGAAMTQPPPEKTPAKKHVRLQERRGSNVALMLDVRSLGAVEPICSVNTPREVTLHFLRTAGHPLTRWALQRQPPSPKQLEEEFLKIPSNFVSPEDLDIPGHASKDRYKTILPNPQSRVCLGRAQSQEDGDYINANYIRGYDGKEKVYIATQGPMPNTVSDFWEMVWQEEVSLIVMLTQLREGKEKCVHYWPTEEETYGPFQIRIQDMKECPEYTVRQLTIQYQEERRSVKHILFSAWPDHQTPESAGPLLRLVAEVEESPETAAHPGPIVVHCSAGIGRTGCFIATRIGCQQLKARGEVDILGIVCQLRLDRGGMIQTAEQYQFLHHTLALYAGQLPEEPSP

[7] = molecular target: T3, Heat shock factor protein 1 (Mus musculus, UniProt P38532); assay: HSF1 potentiators in luciferase reporter cells, confirmation, cell-based, NIH3T3, luminescence, dose retest (AID 435004); format: functional;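 also: stress induced by proteasome inhibitor MG132 added 30 min after compound; luciferase reporter driven by HSF1 response element in NIH3T3 cells; actives raise luminescence as potentiators of the MG132 stress response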
T3 sequence (P38532 whole entry): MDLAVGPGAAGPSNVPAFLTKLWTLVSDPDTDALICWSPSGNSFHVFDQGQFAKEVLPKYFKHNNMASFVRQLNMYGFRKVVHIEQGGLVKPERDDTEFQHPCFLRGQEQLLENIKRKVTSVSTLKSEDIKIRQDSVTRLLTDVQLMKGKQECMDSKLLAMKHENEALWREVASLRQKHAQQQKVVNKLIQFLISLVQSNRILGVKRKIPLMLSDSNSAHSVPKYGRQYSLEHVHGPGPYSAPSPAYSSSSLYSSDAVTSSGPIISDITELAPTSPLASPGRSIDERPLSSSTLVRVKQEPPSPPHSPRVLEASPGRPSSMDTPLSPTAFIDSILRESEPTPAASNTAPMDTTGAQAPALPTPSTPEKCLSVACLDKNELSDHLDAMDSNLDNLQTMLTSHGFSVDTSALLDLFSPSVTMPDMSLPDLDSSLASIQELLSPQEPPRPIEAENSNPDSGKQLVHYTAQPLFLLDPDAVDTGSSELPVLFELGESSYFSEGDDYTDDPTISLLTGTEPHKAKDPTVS

[8] = molecular target: Melanin-concentrating hormone receptor 1 (Homo sapiens, UniProt Q99705); assay: Late-stage fluorescence-based counterscreen for antagonists of the G-protein coupled receptor 7 (GPR7): cell-based dose response assay to identify antagonists of the melanin-concentrating hormone receptor 1 (MCHR1). [Related pubchem assays (depositor defined):AID1861, AID1880, AID1952, AID2148, AID2251, AID2257, AID485339]; format: functional;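 also: stimulated with 30 nM MCH peptide agonist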
[9] = molecular target: Mitogen-activated protein kinase 10 (Homo sapiens, UniProt P53779); assay: Dose response biochemical screening assay for inhibitors of c-Jun N-Terminal Kinase 3 (JNK3). [Related pubchem assays: 746 ]
[10] = P. falciparum late gametocyte killing, dose response, luminescence (AID 1117278); format: functional, cell-based;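 also: gametocytes exposed to compound for 24 hours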
[11] = Jurkat T cell cytotoxicity, dose response, cytotoxicity control for P. falciparum gametocyte viability project, luminescence (AID 1117277); format: functional, cell-based;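 also: potency reflects loss of cellular ATP meaning fewer viable cells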
[12] = inhibitors of firefly luciferase expression or activity, dose response, H4 neuroglioma cells, luminescence (AID 1990); format: functional, cell-based
[13] = luciferase reporter signal reduction – luminescence, H4-C neuroglioblastoma cells, dose response (AID 2458); format: functional, cell-based;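 also: H4 neuroglioblastoma cells stably carrying a luciferase reporter gene fusion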
[14] = system: BJ; assay: cytotoxicity toward BJ-TERT fibroblasts, dose response, cell-based, RAS-independent, luminescence (AID 1933); format: functional; details: Homo sapiens
[15] = cells; format: functional, cell-based
[16] = inhibitors of SNCA 5'UTR-driven reporter translation, confirmation, H4 neuroglioma cells, luminescence (AID 1988); format: functional, cell-based
[17] = system: BJ; assay: cells; format: functional, cell-based; details: Homo sapiens
[18] = system: BJ; assay: cytotoxicity toward BJ-TERT-LT-ST fibroblasts, dose response, cell-based, RAS-independent, luminescence (AID 1935); format: functional; details: Homo sapiens;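 also: BJ fibroblasts immortalized with TERT plus LT and ST oncogenes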
[19] = cytotoxicity toward DRD oncogenic fibroblasts, dose response, cell-based, non-viral oncogenic, luminescence (AID 1934); format: functional; details: Homo sapiens
[20] = inhibitors of SNCA 5'UTR-driven translation, confirmation, luminescence, H4 neuroglioblastoma cells, dose confirmation (AID 2454); format: functional, cell-based;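 also: H4 neuroglioblastoma cells carrying an alpha-synuclein 5'UTR luciferase reporter; potency for inhibition of the luciferase signal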
[21] = cytotoxicity in HEK-293T cells, dose response, cytotoxicity control for BCR NF-kB inhibitor project, luminescence, B-cell screen hits (AID 489021); format: functional, cell-based;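 also: HEK-293T cells carrying an NF-kB luciferase reporter; cells exposed to compound for about 14 hours before viability readout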

Chain of Melanin-concentrating hormone receptor 1 (Q99705 whole entry): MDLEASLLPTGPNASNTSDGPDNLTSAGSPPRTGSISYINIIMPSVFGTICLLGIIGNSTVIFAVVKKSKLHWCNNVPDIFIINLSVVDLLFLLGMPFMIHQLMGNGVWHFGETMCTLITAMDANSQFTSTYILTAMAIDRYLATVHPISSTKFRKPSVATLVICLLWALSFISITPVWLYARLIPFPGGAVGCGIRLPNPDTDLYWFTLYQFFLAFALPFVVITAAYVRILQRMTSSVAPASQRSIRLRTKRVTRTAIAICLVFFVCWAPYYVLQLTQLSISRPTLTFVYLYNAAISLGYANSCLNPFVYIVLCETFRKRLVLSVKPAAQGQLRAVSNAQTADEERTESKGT
Chain of Mitogen-activated protein kinase 10 (P53779 whole entry): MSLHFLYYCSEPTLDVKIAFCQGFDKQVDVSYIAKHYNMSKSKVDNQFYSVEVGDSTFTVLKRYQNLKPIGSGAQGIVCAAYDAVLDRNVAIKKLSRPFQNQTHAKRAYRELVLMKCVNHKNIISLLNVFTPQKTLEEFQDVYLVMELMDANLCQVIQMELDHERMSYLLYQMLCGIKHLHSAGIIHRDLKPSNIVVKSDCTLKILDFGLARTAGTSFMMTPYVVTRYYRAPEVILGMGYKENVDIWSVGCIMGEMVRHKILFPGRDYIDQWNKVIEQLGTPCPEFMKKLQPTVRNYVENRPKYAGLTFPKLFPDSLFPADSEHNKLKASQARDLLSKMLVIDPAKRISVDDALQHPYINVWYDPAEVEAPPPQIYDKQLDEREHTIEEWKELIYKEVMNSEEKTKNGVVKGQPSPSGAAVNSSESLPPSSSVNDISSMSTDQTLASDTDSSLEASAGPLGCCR

**Q.** For `CN1C(=O)C(=CNc2ccc3c(c2)CCC3)C(=O)N(C)C1=O`, which IC50 [1] is on record?
**A.** > 100 µM (active)

**Q.** Which EC50 [2] does the source give for `Cc1ccc2nc(N(CCCN(C)C)C(=O)CN3C(=O)c4ccccc4C3=O)sc2c1` here?
**A.** < 0.1 µM (active)

**Q.** What about the EC50 [3] of the same molecule?
**A.** > 60 µM (not active)

**Q.** And the AC50 [4]?
**A.** 21.7 µM (active)

**Q.** What about the EC50 [5] of the same molecule?
**A.** 0.055 µM (active)

**Q.** Which results are given for `O=C(NCc1cccc(F)c1)c1noc2c1CCCC2`?
**A.** IC50 [6]: > 100 µM (not active); EC50 [7]: > 260 µM (inactive)

**Q.** For `Cc1ccc(-c2csc(N=C(N)N)n2)c(C)c1`, which EC50 [2] is on record?
**A.** < 0.1 µM (active)

**Q.** What about the EC50 [3] of the same molecule?
**A.** > 60 µM (not active)

**Q.** What about the EC50 [5] of the same molecule?
**A.** 0.167 µM (active)

**Q.** Which IC50 [8] does the source give for `Cc1ccc(-n2ncc(Cl)c(Oc3ccc(CO)cc3)c2=O)cc1` here?
**A.** > 20 µM (inactive)

**Q.** Which IC50 [9] does the source give for `N#Cc1sc2nc3c(c(-c4ccco4)c2c1N)CCCC3` here?
**A.** 68.6 µM (not active)

**Q.** For `CCC(C)c1ccc(-n2ncc(Cl)c(Oc3ccc(OC)cc3)c2=O)cc1` (stereo unspecified), which IC50 [8] is on record?
**A.** 2.2 µM (active)

**Q.** With `N#Cc1c(N)nc2c(c1-c1ccncc1)CCCCC2` as the molecule, how does the IC50 [10] read?
**A.** > 109 µM (inactive)

**Q.** What about the IC50 [11] of the same molecule?
**A.** > 83.4 µM (inactive)

**Q.** With `CCOC(=O)Cc1ccc(NC(=O)c2ccc(C(C)(C)C)cc2)cc1` as the molecule, how does the EC50 [12] read?
**A.** < 0.1 µM (active)

**Q.** And the EC50 [13]?
**A.** 0.266 µM (active)

**Q.** What about the EC50 [14] of the same molecule?
**A.** 60.1 µM (active)

**Q.** And the EC50 [15]?
**A.** 0.508 µM (active)

**Q.** What about the EC50 [16] of the same molecule?
**A.** < 0.1 µM (active)

**Q.** And the EC50 [17]?
**A.** > 150 µM (not active)

**Q.** And the EC50 [18]?
**A.** > 150 µM (inconclusive)

**Q.** And the EC50 [19]?
**A.** 49.5 µM (active)

**Q.** And the EC50 [20]?
**A.** 0.483 µM (active)

**Q.** What about the IC50 [21] of the same molecule?
**A.** 42.8 µM (inactive)

**Q.** For `CNC(=O)C1=NCCCc2cc(OC)c(OC)cc21`, which IC50 [6] is on record?
**A.** > 100 µM (not active)
